Experimental data from article PMC8877962, “New Preservative-Free Formulation for the Enhanced Ocular Bioavailability of Prostaglandin Analogues in Glaucoma” (Pharmaceutics, 2022).
Read-outs that look alike come from different tables or passages of the source.

Experiments:
[1] = Differential scanning calorimetry of travoprost:excipient blends; assay type: physicochemical
Method: The differential scanning calorimetry (DSC) studies were performed using a DSC 3 thermal analysis device (Mettler-Toledo GmbH, Greinfensee, Switzerland) calibrated upstream with high-purity zinc (99.99%, Tfus = 419.6 ± 0.7 °C, ΔfusH = 107.5 ± 3.2 J.g^−1), high-purity indium (99.99%, Tfus = 156.6 ± 0.3 °C, ΔfusH = 28.45 ± 0.60 J.g^−1) and controlled with both, and Milli-Q water (Merck Millipore, Burlington, MA, USA). Each sample was introduced in a 100 µL aluminum pan which was hermetically sealed afterwards. The conditions of the sample preparation, as well as the applied temperature program, were strictly identical to avoid any thermal history dependence of the samples. The cycle, performed twice on each sample, was freezing from ambient temperature to −80 °C at a rate of 5 °C/min, then holding for 3 min at −80 °C, then heating to 25 °C, at a rate of 5 °C/min under a 60 mL/min dry air flow. Travoprost, NaHA and PS80 were analyzed either alone or as binary drug:excipient blends at different weight ratios (1:3, 1:1 and 3:1, respectively). Measurements were performed on 3 independent samples (n = 3). Thermogram evaluation was performed using STARe version 16.30 (Mettler-Toledo GmbH, Greinfensee, Switzerland).

[2] = design: method as in doi:10.1002/etc.5620171002; settings: cited from earlier work
[3] = Pyrene fluorescence spectroscopy (micelle formation, CMC determination); assay type: physicochemical; settings: pyrene 7.5 µM
Method: Pyrene is a lipophilic fluorescent probe often used to determine the critical micellar concentration (CMC) of surfactants. Indeed, it has the interesting feature of being sensitive to the polarity of its environment and partitioning into micelles leading to an hyperchromicity. First, 40 mg of pyrene were dissolved into 10 mL of ethanol, this solution was diluted in water to achieve a stock solution with a concentration of 7.5 µM. This stock solution was used as solvent to prepare PS80 and NaHA solutions of different concentrations in triplicate. Fluorescence measurements were performed using a Varian Cary Eclipse fluorescence spectrophotometer and processed with the Cary Eclipse software version 1.1.132 (Agilent Technologies, Santa Clara, CA, USA). The data were acquired using an excitation wavelength of 230 nm with a 20 nm slit and by recording an emission scan from 350 to 450 nm with a 2.5 nm slit. Peaks 1 and 3, used to determine the fluorescence ratio I1/I3, were at approximately 372 and 383 nm, respectively. PS80 CMC was determined using a sigmoidal non-linear variable slope regression performed using GraphPad Prism version 8.0.2 for windows (GraphPad Software, San Diego, CA, USA). CMC was considered as the abscissa of the point at which the top of the sigmoid and the tangent to the inflection point crossed.

[4] = design: method as in doi:10.1007/s11743-000-0113-4; settings: surface tension measurement; cited from earlier work
[5] = design: method as in earlier work; settings: fluorescence-based method using pyrene-3-carboxaldehyde; cited from earlier work
[6] = Travoprost:Excipient mass ratio 1:0 (travoprost alone), n = 3
[7] = Travoprost:Polysorbate 80 mass ratio 1:1
[8] = Travoprost:Polysorbate 80 mass ratio 1:3
[9] = Travoprost:Polysorbate 80 mass ratio 3:1
[10] = Travoprost:Sodium Hyaluronate mass ratio 1:1
[11] = Travoprost:Sodium Hyaluronate mass ratio 1:3
[12] = Travoprost:Sodium Hyaluronate mass ratio 3:1

CC(C)OC(=O)CCC/C=C\C[C@@H]1[C@@H](/C=C/[C@@H](O)COc2cccc(C(F)(F)F)c2)[C@H](O)C[C@@H]1O [Travoprost]
Tg [1, 6]: −21.9 ± 0.6 °C | ΔCp normalized to travoprost content [1, 6]: −0.57 ± 0.05 J/g/K | Tg ([1]; Travoprost:Excipient mass ratio 1:0 (travoprost alone), n = 3, listed as travoprost): around −22 °C | Tg [1, 7]: −54.4 ± 0.6 °C | ΔCp normalized to travoprost content [1, 7]: −2.04 ± 0.06 J/g/K | Tg [1, 8]: −58.8 ± 0.7 °C | ΔCp normalized to travoprost content [1, 8]: −2.96 ± 0.07 J/g/K | Tg [1, 9]: −44.2 ± 0.7 °C | ΔCp normalized to travoprost content [1, 9]: −1.32 ± 0.06 J/g/K | Tg [1, 10]: −21.4 ± 0.6 °C | ΔCp normalized to travoprost content [1, 10]: −0.60 ± 0.05 J/g/K | Tg [1, 11]: −22.3 ± 0.7 °C | ΔCp normalized to travoprost content [1, 11]: −0.55 ± 0.05 J/g/K | Tg [1, 12]: −20.3 ± 0.6 °C | ΔCp normalized to travoprost content [1, 12]: −0.58 ± 0.06 J/g/K | shift in the Tg ([1]; in presence of PS80, when increasing the excipient content): −22 to −58 °C

c1cc2ccc3cccc4ccc(c1)c2c34 [pyrene, Pyrene]
LogP [2]: 6.0

Polysorbate 80 [PS80]
I1/I3 fluorescence ratio of pyrene with increasing excipient concentration [3]: decrease | CMC [4]: 0.018 mM | CMC [5]: 0.015 mM
